Results from patent US12129238B2, “Crystalline form of propoxazepam, the method of its making and use as medicinal agent” (priority 2018, dated 2024).

How the values were obtained:
Assay type in all cases: in vivo
mice [1] = test: Determination of the mean lethal dose (LD50), oral administration to mice; conditions: stabilized suspension in isotonic sodium chloride solution, 14 days observation
Text: (§1) The preliminary assignment of a substance to a certain toxicity class is based on an indicator that quantitatively characterizes the acute toxicity of the compound—the dose of the substance that causes a lethal effect in 50% of the population (LD50). Determination of this indicator in one of the types of experimental animals allows to extrapolate it for other species and justify the dose limits for the first phase of clinical trials.
(§2) To calculate the average dose, mortality/survival rates of the animals by the end of the observation period were used.

rats = test: Model of thermal nociception (tail flick test) on rats; conditions: rat tail-flick, latency 2 hours after administration, dispersed in saline with Tween 80
Experimental: Antinociceptive (analgesic) activity was evaluated on a rat tail “tail-flick” model using a focused light beam on rats. Latency time was determined by tail pulling away from the beam source, expressed in seconds. Animals were randomized with respect to the initial value of the latent period, with index from 4 to 12 seconds. The magnitude of the antinociceptive effect was indicated by the increasing of the length of the latent period (pain sensitivity threshold, PST). The initial indices of the PST and its changes 2 hours after the administration of the test compound were compared. The calculation of ED50 (the average effective dose of analgesic activity in this model for rats) was carried out using the least squares method.
Three samples of compound (I) were prepared and used in the ‘tail-flick’ test: • The first sample is prepared using the sample of Comparative Example 1, i.e. Form I, in its natural coarse crystalline state. In particular, the coarse crystalline sample of Comparative Example 1 is dispersed in a saline solution and stabilized with Tween 80). The crystalline structure (Form I) remains unchanged. • The second sample was prepared by micronizing (mechanically grinding) the coarse crystalline sample of Comparative Example 1, in order to prepare a sample of Form I having a smaller average particle size. In particular, the micronized sample is dispersed in a saline solution and stabilized with Tween 80). The crystalline structure (Form I) remains unchanged. • The third sample is a dispersed sample of Inventive Example 1, i.e. compound (I) in crystalline Form II. In particular, a sample of Inventive Example 1 is dispersed in a saline solution and stabilized with Tween 80). The crystalline structure (Form II) remains unchanged. The third sample has a similar average particle size to the second sample for a side-by-side comparison.

mice [2] = test: Model of acetic acid-induced pain (cramps) on mice; conditions: 0.75% acetic acid i.p. 2 hours after test compound, cramps counted 1st to 20th minute
Experimental: To reproduce acute visceral and somatic deep pain (nociceptive pain), the method of “acetic acid-induced pain (cramps)” was used in mice. The mice received a 0.75% solution of acetic acid intraperitoneally (at a dose of 0.1 ml/10 g of body weight), 2 hours after the administration of the test compounds. The number of cramps was counted from the first to the 20th minute (inclusive) after modeling the pathological state. The calculation of ED50 (the average effective dose of analgesic activity in this model for mice) was carried out using the least squares method.
Two samples of compound (I) were prepared and used in the ‘tail-flick’ test: • The first sample is a dispersed sample of Form I. This was prepared by adding a hot (65° C.) saturated solution of Comparative Example 1 (Form I) in ethyl alcohol to water at room temperature (about 20° C.) and atmospheric pressure (about 101.325 KPa). Dispersed Form I has a particle size (D(50)) of around 29 μm. • The second sample is a dispersed sample of Inventive Example 1, i.e. compound (I) in crystalline Form II. This sample is prepared by was dispersing Inventive Example 1 in a saline solution stabilized with Tween-80. The crystalline structure remains unchanged. Dispersed Form II has a particle size (D(50)) of around 24.3 μm.

[3] = Determination of the mean lethal dose (LD50), oral administration to mice; conditions: mouse, in vivo, po, stabilized suspension in isotonic sodium chloride solution, 14 days observation
Text: as §1, §2

| Structure (SMILES) | LD50 (mean lethal dose) (mice [1]) [mg/kg] | ED50 (Average effective dose (50%)) (rats) [mg/kg] | ED50 (Average effective dose (50%)) (mice [2]; listed as Dispersed Form II) [mg/kg] | LD50 at 14 days [3] [mg/kg] | ED50 (Average effective dose (50%)) (rats; listed as Form I (coarse crystalline)) [mg/kg] | ED50 (Average effective dose (50%)) (rats; listed as Form I (micronized)) [mg/kg] | ED50 (Average effective dose (50%)) (mice [2]; listed as Dispersed Form I) [mg/kg] |
| --- | --- | --- | --- | --- | --- | --- | --- |
| CCCOC1N=C(c2ccccc2Cl)c2cc(Br)ccc2NC1=O (stereo not shown) [Form II, 7-Bromo-3-propoxy-5-(2-chlorophenyl)-1,3-dihydrobenzo-[e]-[1,4]-diazepin-2-one] | 1475 ± 402 | 0.17 | 0.89 | – | – | – | – |
| CCCOC1N=C(c2ccccc2Cl)c2cc(Br)ccc2NC1=O (stereo not shown) [Form I, 7-Bromo-3-propoxy-5-(2-chlorophenyl)-1,3-dihydrobenzo-[e]-[1,4]-diazepin-2-one] | – | – | – | 1120 ± 190 | 1.82 | 1.06 | 1.87 |
